“And” between values parts separate entries of the source, which are not always exact repeats. Equal entries are not always repeated. Where two headings read alike, the source gives them in different places. One block for each compound: values may come before it.
Experiments:
[1] = test system: chick chorioallantoic membrane (CAM) blood vessel branch points; test: Chick chorioallantoic membrane (CAM) model of angiogenesis; assay type: in vivo
Procedure: In vivo neovascularization was examined by methods described previously. 9-12 Ten-day-old chick embryos were purchased from SPAFAS (Preston, Conn.) and incubated at 37° C. with 55% relative humidity. A hypodermic needle was used to make a small hole in the shell concealing the air sac, and a second hole was made on the broad side of the egg, directly over an avascular portion of the embryonic membrane that was identified by candling. A false air sac was created beneath the second hole by the application of negative pressure at the first hole, causing the CAM to separate from the shell. […] Thyroid hormone, hormone analogs, FGF2 or control solvents, and inhibitors were then applied to the disks and the disks allowed to dry. The disks were then suspended in PBS and placed on growing CAMs. […] At 24 hours, the MAPK cascade inhibitor PD 98059 was also added to CAMs topically by means of the filter disks. […] The number of vessel branch points contained in a circular region equal to the area of each filter disk were counted. […] In addition, each experiment was performed 3 times. The resulting angiogenesis index is the mean±SEM of new branch points.

[2] = test system: matrigel plug angiogenesis; test: Mouse matrigel model of angiogenesis (plug hemoglobin); assay type: in vivo, mice (C57BL/6NCr); details: for inhibition in vivo at 10 µg/plug: Mus musculus, FGF 100 ng + test substance 10 μg/plug; for inhibition in vivo at 10 µg/plug / inhibition of FGF-induced angiogenesis (in words): numbers are Tetrac analogs of Example 13
Procedure: Normal male mice (C57BL/6NCr) 6-8 weeks of age and weighing ˜20 g were purchased from Taconic farm. Animals were housed 4 per cage, in controlled conditions of temperature (20-24° C.); humidity (60-70%) and 12 hrs. light/dark cycle provided with food and water ad libitum. […] Aliquots of matrigel were placed into cold polypropylene tubes to prevent the matrigel from solidifying and the angiogenesis promoter added to matrigel with or without agonist. Mice were treated daily. Matrigel was subcutaneously injected as triple injection per animal at 100 μL/animal. At day 14 post plug implant all animals were killed in CO2 chamber and matrigel plugs were collected. Plug hemoglobin content was analyzed from three implants/mice (n=6 per group) to measure angiogenesis.
The matrigel plugs dissected from the mice were carefully stripped of any remaining peritoneum. The plugs were placed into 0.5 mL tube of ddH2O and homogenized for 5-10 min. […] Absorbance was read with a Microplate Manager ELISA reader at 540 nm. […] Hemoglobin concentration is a reflection of the number of blood vessels in the plugs.

[3] = Gallus gallus, read-out: Mean % of stimulation (comparing to PBS)
[4] = 0.01 uM; n = 8 per group; PBS (Control) 89.4 ± 9.3
[5] = 0.1 uM; n = 8 per group; PBS (Control) 89.4 ± 9.3
[6] = 10 μg/matrigel plug, numbers are T4 analogs of Example 12, n = 6-7, Control 0.3 ± 0.1
[7] = numbers are T4 analogs of Example 12
[8] = T4 + test substance, each 10 μg/matrigel plug, n = 25, T4 alone 1.2 ± 0.4
[9] = 10 μg/matrigel plug, numbers are T4 analogs of Example 12
[10] = 1 μM; numbers are T4 analogs of Example 12
[11] = 1 μM; numbers are T4 analogs of Example 12; mean ± SEM, n = 8; PBS 73 ± 6

melting point: 120 °C
Compound: CC(C)[Si](OC(=O)Cc1cc(I)c(Oc2cc(I)c(OCC3CO3)c(I)c2)c(I)c1)(C(C)C)C(C)C (stereo not drawn)

melting point: 116 °C
Compound: O=C(Cc1cc(I)c(Oc2cc(I)c(OCC3CO3)c(I)c2)c(I)c1)OCC1CO1 (stereo not drawn)

Compound: CC(C)(C)OC(=O)NC(Cc1cc(I)c(Oc2cc(I)c(OCC3CO3)c(I)c2)c(I)c1)C(=O)OCC1CO1 (stereo not drawn) (hydrate or solvate) [T4 analog 14, Oxiran-2-ylmethyl-2-(tert-butoxycarbonylamino)-3-(4-(3,5-diiodo-4-(oxiran-2-ylmethoxy)phenoxy)-3,5-diiodophenyl)propanoate]
melting point: 105 °C

Compound: CC(C)[Si](OC(=O)C(Cc1cc(I)c(Oc2cc(I)c(OCC3CO3)c(I)c2)c(I)c1)NC(=O)OC(C)(C)C)(C(C)C)C(C)C (stereo not drawn) (hydrate or solvate) [T4 analog 15, Triisopropylsilyl-2-(tert-butoxycarbonylamino)-3-(4-(3,5-diiodo-4-(oxiran-2-ylmethoxy)phenoxy)-3,5-diiodophenyl)propanoate]
melting point: 109 °C

Compound: CC(C)(C)OC(=O)NC(Cc1cc(I)c(Oc2cc(I)c(O)c(I)c2)c(I)c1)C(=O)O (stereo not drawn) [Compound 7]
change in vivo at 0.1 µM [1, 3]: 137 ± 7.5%

Compound: CC(=O)NC(Cc1cc(I)c(Oc2cc(I)c(OC(C)=O)c(I)c2)c(I)c1)C(=O)O (stereo not drawn) [Compound 9]
change in vivo at 0.1 µM ([1]; Gallus gallus; read-out: Mean % of stimulation (comparing to PBS)): 67.1 ± 5%

Compound: O=C(O)Cc1cc(I)c(Oc2cc(I)c(OCC3CO3)c(I)c2)c(I)c1 (stereo not drawn) [Compound 9]
inhibition in vivo at 10 µg/plug [2]: 100 ± 12%

Compound: O=C(O)CCc1cc(I)c(Oc2ccc(O)cc2)c(I)c1 [DITPA, 3,5-diiodothyropropionic acid]
ANGIOGENESIS INDEX [1, 4]: 133.0 ± 11.6
ANGIOGENESIS INDEX [1, 5]: 167.3 ± 12.7
ANGIOGENESIS INDEX ([1]; 0.2 mM; n = 8 per group; PBS (Control) 89.4 ± 9.3): 117.9 ± 5.6

Compound: Cc1cc(OCC(=O)O)cc(C)c1Cc1ccc(O)c(C(C)C)c1 [GC-1, 3,5-dimethyl-4-(4′-hydroxy-3′-isopropylbenzyl)-phenoxy acetic acid]
ANGIOGENESIS INDEX [1, 4]: 169.6 ± 11.6
ANGIOGENESIS INDEX [1, 5]: 152.7 ± 9.0

Compound: O=C(O)C(Cc1cc(I)c(Oc2cc(I)c(O)c(I)c2)c(I)c1)NC(c1ccccc1)(c1ccccc1)c1ccccc1 (stereo not drawn) [PRIAB2]
Branch pts ± SEM ([1]; 0.1 μM; PBS 76.0 ± 8.5): 136.0 ± 18.1

Compound: CNC(Cc1cc(I)c(Oc2cc(I)c(O)c(I)c2)c(I)c1)C(=O)O (stereo not drawn) [PRIAB6]
Branch pts ± SEM ([1]; 0.1 μM; PBS 76.0 ± 8.5): 136.2 ± 12.4

Compound: CCNC(Cc1cc(I)c(Oc2cc(I)c(O)c(I)c2)c(I)c1)C(=O)O (stereo not drawn) [PRIAB12]
Branch pts ± SEM ([1]; 0.1 μM; PBS 76.0 ± 8.5): 121.7 ± 13.6

Compound: CC(C)(C)OC(=O)NC(Cc1cc(I)c(Oc2cc(I)c(O)c(I)c2)c(I)c1)C(=O)O (stereo not drawn) [T4 analog 7, 2-[(Tert-butoxycarbonyl)amino]-3-[4-(4-hydroxy-3,5-diiodophenoxy)-3,5-diiodophenyl]propanoic acid]
Branch pts ± SEM ([1]; 0.1 μM; PBS 65.2 ± 14.9): 173 ± 9.9

Compound: CNC(Cc1cc(I)c(Oc2cc(I)c(O)c(I)c2)c(I)c1)C(=O)[O-].O.O.[K+] (stereo not drawn) [T4 analog 10, Potassium 3-[4-(4-hydroxy-3,5-diiodophenoxy)-3,5-diiodophenyl]-2-(methylamino)propanoate dihydrate]
Mean stimulation of angiogenesis (%) ([2]; 10 μg/matrigel plug, numbers are T4 analogs of Example 12, dihydrate): 87% and 87 ± 33%
Hemoglobin (mg/mL) ± SEM [2, 6]: 0.8 ± 0.2 mg/mL
Mean % of stimulation (comparing to PBS) ([1]; 0.1 μM; numbers are T4 analogs of Example 12): 43.8 ± 6.5%
Mean Branch points ([1]; 0.1 μM; numbers are T4 analogs of Example 12; mean ± SEM, n = 8; PBS 73 ± 6): 105 ± 7

Compound: CCNC(Cc1cc(I)c(Oc2cc(I)c(O)c(I)c2)c(I)c1)C(=O)O (stereo not drawn) [T4 analog 11, 2-(Ethylamino)-3-[4-(4-hydroxy-3,5-diiodophenoxy)-3,5-diiodophenyl]propanoic acid]
effect on angiogenesis, representative illustrations FIG. 23 (in words) [1, 7]: proangiogenesis

Compound: CCNC(Cc1cc(I)c(Oc2cc(I)c(O)c(I)c2)c(I)c1)C(=O)OCC (stereo not drawn) [T4 analog 12, Ethyl-2-(ethylamino)-3-[4-(4-hydroxy-3,5-diiodophenoxy)-3,5-diiodophenyl]propanoate]
Hemoglobin (mg/mL) ± SEM [2, 8]: 0.4 ± 0.1 mg/mL
Mean Branch points ([1]; FGF (1.25 μg/ml) + T4 analog 12 (0.1 μM); PBS 73 ± 6): 46 ± 2
effect on FGF and T4 activity, CAM and matrigel assays (in words) ([1]; T4 analog of Example 12): entirely inhibiting FGF and T4 activity
effect on angiogenesis, representative illustrations FIG. 23 (in words) [1, 7]: anti-angiogenic

Compound: CC(C)[Si](OC(=O)C(Cc1cc(I)c(Oc2cc(I)c(O)c(I)c2)c(I)c1)NC(=O)OC(C)(C)C)(C(C)C)C(C)C (stereo not drawn) [T4 analog 13, Triisopropylsilyl-2-(tert-butoxycarbonylamino)-3-(4-(4-hydroxy-3,5-diiodophenoxy)-3,5-diidoclophenyl)propanoate]
Mean stimulation of angiogenesis (%) [2, 9]: 0 ± 17%
Hemoglobin (mg/mL) ± SEM [2, 6]: 0.3 ± 0.1 mg/mL
Mean % of stimulation (comparing to PBS) [1, 10]: 4.1 ± 6.5%
Mean Branch points [1, 11]: 76 ± 7
Mean % Inhibition ([1]; FGF (1.25 μg/ml) + test substance, 10 μg/plug per footnote; numbers are Tetrac analogs of Example 13): 44 ± 13%
Mean Branch points ([1]; FGF (1.25 μg/ml) + test substance, 10 μg/plug per footnote; numbers are Tetrac analogs of Example 13; n = 8; PBS 73 ± 6, FGF 130 ± 11): 105 ± 7

Compound: CC(C)(C)OC(=O)NC(Cc1cc(I)c(Oc2cc(I)c(OCC3CO3)c(I)c2)c(I)c1)C(=O)OCC1CO1 (stereo not drawn) [T4 analog 14, Oxiran-2-ylmethyl-2-(tert-butoxycarbonylamino)-3-(4-(3,5-diiodo-4-(oxiran-2-ylmethoxy)phenoxy)-3,5-diiodophenyl)propanoate]
Mean stimulation of angiogenesis (%) [2, 9]: 0 ± 17%
Hemoglobin (mg/mL) ± SEM [2, 6]: 0.3 ± 0.1 mg/mL
Mean % of stimulation (comparing to PBS) [1, 10]: 56.2 ± 7.5%
Mean Branch points [1, 11]: 114 ± 11

Compound: CC(C)[Si](OC(=O)C(Cc1cc(I)c(Oc2cc(I)c(OCC3CO3)c(I)c2)c(I)c1)NC(=O)OC(C)(C)C)(C(C)C)C(C)C (stereo not drawn) [T4 analog 15, Triisopropylsilyl-2-(tert-butoxycarbonylamino)-3-(4-(3,5-diiodo-4-(oxiran-2-ylmethoxy)phenoxy)-3,5-diiodophenyl)propanoate]
Mean stimulation of angiogenesis (%) [2, 9]: 0 ± 17%
Hemoglobin (mg/mL) ± SEM [2, 6]: 0.3 ± 0.1 mg/mL
Mean Branch points [1, 11]: 98 ± 8
change in vivo at 1 µM [1, 3]: 34.2 ± 7%
effect on angiogenesis, representative illustrations FIG. 23 (in words) [1, 7]: no effect

Compound: CC(C)(C)OC(=O)Cc1cc(I)c(Oc2cc(I)c(O)c(I)c2)c(I)c1 [Tetrac analog 3, tert-Butyl-2-(4-(4-hydroxy-3,5-diiodophenoxy)-3,5-diiodophenyl)acetate]
inhibition of FGF-induced angiogenesis (in words) [2]: strong

Compound: O=C(Cc1cc(I)c(Oc2cc(I)c(O)c(I)c2)c(I)c1)NC1CCCCC1 [Tetrac analog 4, N-cyclohexyl-2-(4-(4-hydroxy-3,5-diiodophenoxy)-3,5-diiodophenyl)acetamide]
inhibition in vivo at 10 µg/plug [2]: 104 ± 12%
inhibition of FGF-induced angiogenesis (in words) [2]: strong
inhibition of angiogenesis in the CAM assay (in words) ([1]; numbers are Tetrac analogs of Example 13): not as strong as compounds 3, 5, 7, and 9

melting point: 263 °C
Compound: O=C(Cc1cc(I)c(Oc2cc(I)c(OCCCl)c(I)c2)c(I)c1)NC1CCCCC1 [Tetrac analog 15, 2-(4-(4-(2-chloroethoxy)-3,5-diiodophenoxy)-3,5-diiodophenyl)-N-cyclohexylacetamide]

Compound: FGF2: human recombinant FGF2, basic fibroblast growth factor, standard proangiogenic agent
Hemoglobin (mg/mL) ± SEM ([2]; FGF 100 ng alone, Control 0.3 ± 0.1): 2.4 ± 0.4 mg/mL
ANGIOGENESIS INDEX ([1]; 1 uM; n = 8 per group; PBS (Control) 89.4 ± 9.3): 155 ± 9
Branch pts ± SEM ([1]; 1.25 μg/ml; PBS 76.0 ± 8.5): 137.9 ± 7.5
Mean % of stimulation (comparing to PBS) ([1]; FGF 1.25 μg/mL alone): 178.1 ± 7.5%
Mean Branch points ([1]; FGF 1.25 μg/mL alone; n = 8; PBS 73 ± 6): 130 ± 11
stimulation of branch formation ([1]; FGF2 1 μg/mL): 2.2 fold
increase in angiogenesis ([1]; FIG. 5, 3 experiments; concentration not given): 2 fold

Compound: tetraiodothyroacetic acid [Tetrac]
Mean inhibition of angiogenesis (%) ([2]; T4 + test substance, each 10 μg/matrigel plug): 89 ± 11%
Hemoglobin (mg/mL) ± SEM [2, 8]: 0.4 ± 0.1 mg/mL
